Reference: US20240067693A1, “POLYPEPTIDES AND USES THEREOF” (MEDIMMUNE LIMITED, priority 2020, published 2024)
Numbered stars: 1 amine (or outer) side, 2 acyl side, 3 side chain; on linkers, the order of the positions; unused ones are H or OH. Bridge positions count the residues as written; N and C are the ends. Square brackets hold non-standard residues; d marks the D form. Side chains are listed from the residue outwards. Peptide text beside a SMILES is read from it. * marks the point of attachment. C20 diacid = O=C(O)CCCCCCCCCCCCCCCCCCC(=O)*; C18 diacid = O=C(O)CCCCCCCCCCCCCCCCC(=O)*; γGlu = O=C(O)[C@H](CCC(=O)[*:2])N[*:1]; AEEA = NCCOCCOCC(=O)O; Aib = CC(C)(N)C(=O)O

Assays:
lean rats = assay: Rat acute food intake study; assay type: in vivo; conditions: lean male Sprague Dawley rats, 20 nmol/kg subcutaneously
Outline: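 Male Sprague Dawley rats (n=7/group), fasted 6 h, received 20 nmol/kg test compound or 60 nmol/kg pramlintide subcutaneously 30 min before food return at dark onset. Food intake recorded automatically in home cages over 3 days, binned hourly and analysed as cumulative dark-period intake; body weight taken daily.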

[1] = molecular target: T1, human amylin receptor (calcitonin receptor co-expressed with receptor activity modifying protein, RAMP3) (hAMYR3) (Homo sapiens, UniProt O60896+P30988); assay: cAMP production in 1321N1 cells with stable recombinant expression of human amylin receptor (hAMYR3); assay type: cell-based; conditions: for Ratio (selectivity hAMYR vs hCTR, ratio of EC50 values at the two receptors): EC50 hCTR / EC50 hAMYR3; for EC50: cAMP, 1321N1 cells, assay buffer with 0.1% BSA, read-out: EC50 (pM) hAMYR3
T1 construct: expressed in transfected cells
T1 sequence (P30988 25-474): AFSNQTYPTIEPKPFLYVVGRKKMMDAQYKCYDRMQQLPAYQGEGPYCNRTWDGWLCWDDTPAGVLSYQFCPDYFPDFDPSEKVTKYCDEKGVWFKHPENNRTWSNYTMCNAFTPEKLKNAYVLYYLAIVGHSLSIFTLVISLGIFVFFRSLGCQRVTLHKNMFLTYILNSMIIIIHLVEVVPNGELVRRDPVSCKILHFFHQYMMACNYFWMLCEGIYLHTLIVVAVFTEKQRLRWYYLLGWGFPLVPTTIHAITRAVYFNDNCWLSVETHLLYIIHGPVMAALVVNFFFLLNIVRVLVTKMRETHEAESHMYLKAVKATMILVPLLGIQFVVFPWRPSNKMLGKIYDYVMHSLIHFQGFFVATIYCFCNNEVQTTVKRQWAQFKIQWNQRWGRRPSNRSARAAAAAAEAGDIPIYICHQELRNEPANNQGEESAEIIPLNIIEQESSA
T1 sequence (O60896 24-148 partner): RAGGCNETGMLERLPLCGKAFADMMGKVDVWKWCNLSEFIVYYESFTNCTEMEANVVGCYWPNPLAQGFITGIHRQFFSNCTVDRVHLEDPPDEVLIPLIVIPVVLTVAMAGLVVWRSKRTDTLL
Outline: (§1)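 Receptor-expressing cells (human receptors in 1321N1, rat receptors in HEK) incubated 30 min at room temperature with peptide in HBSS/HEPES pH 7.4, 0.1% BSA, 0.5 mM IBMX. cAMP read by HTRF; EC50 from 4-parameter fit as % of maximal amylin or calcitonin response.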

[2] = molecular target: T2, rat amylin receptor (calcitonin receptor co-expressed with receptor activity modifying protein, RAMP3) (Rat AMYR3) (Rattus norvegicus, UniProt P32214+Q9JJ73); assay: cAMP production in HEK cells with stable recombinant expression of rat amylin receptor (Rat AMYR3); assay type: cell-based; conditions: assay buffer with 0.1% BSA
T2 construct: expressed in transfected cells
T2 sequence (P32214 25-516): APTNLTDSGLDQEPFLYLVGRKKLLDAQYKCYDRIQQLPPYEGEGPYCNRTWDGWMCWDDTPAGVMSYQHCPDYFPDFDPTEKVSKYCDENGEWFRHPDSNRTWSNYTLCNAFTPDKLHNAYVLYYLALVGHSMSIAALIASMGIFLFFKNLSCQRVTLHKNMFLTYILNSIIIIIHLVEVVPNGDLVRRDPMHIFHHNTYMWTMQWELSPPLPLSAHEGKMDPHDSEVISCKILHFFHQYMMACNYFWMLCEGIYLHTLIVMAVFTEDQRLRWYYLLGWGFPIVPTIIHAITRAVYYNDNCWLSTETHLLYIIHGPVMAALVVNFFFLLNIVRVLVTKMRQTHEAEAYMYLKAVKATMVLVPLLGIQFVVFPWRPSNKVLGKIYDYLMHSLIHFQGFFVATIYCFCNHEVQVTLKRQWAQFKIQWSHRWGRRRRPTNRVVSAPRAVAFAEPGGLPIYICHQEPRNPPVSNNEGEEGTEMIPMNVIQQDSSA
T2 sequence (Q9JJ73 23-147 partner): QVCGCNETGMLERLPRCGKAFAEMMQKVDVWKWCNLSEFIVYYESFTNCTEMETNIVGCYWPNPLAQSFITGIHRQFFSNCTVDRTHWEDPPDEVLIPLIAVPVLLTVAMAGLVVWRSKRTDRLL
Outline: as §1

Ratio (selectivity hAMYR vs hCTR, ratio of EC50 values at the two receptors) [1] | EC50 [1] [pM] | EC50 [2] [pM] | Compound | Cummulative food intake (% vehicle treated intake) At 12 h (lean rats) [% vehicle treated intake] | Cummulative food intake (% vehicle treated intake) At 24 h (lean rats) [% vehicle treated intake] | Cummulative food intake (% vehicle treated intake) At 48 h (lean rats) [% vehicle treated intake]
2 | 861 | 16 | CC[C@H](C)[C@H](NC(=O)[C@@H]1CCCN1C(=O)CNC(=O)[C@H](Cc1ccccc1)NC(=O)[C@H](CC(N)=O)NC(=O)[C@H](CC(N)=O)NC(=O)[C@H](CO)NC(=O)[C@H](CO)NC(=O)[C@H](Cc1c[nH]cn1)NC(=O)[C@@H](NC(=O)[C@H](CC(C)C)NC(=O)[C@H](Cc1ccccc1)NC(=O)[C@H](CC(N)=O)NC(=O)[C@H](C)NC(=O)[C@H](CC(C)C)NC(=O)[C@H](CCCNC(=N)N)NC(=O)[C@H](CCC(N)=O)NC(=O)[C@@H](NC(=O)[C@H](C)NC(=O)[C@@H]1CSSC[C@H](NC(=O)[C@H](CCCCN)NC(=O)CC[C@H](NC(=O)CCCCCCCCCCCCCCCCCCC(=O)O)C(=O)O)C(=O)N[C@@H](CC(N)=O)C(=O)N[C@@H]([C@@H](C)O)C(=O)N[C@@H](C)C(=O)N[C@@H]([C@@H](C)O)C(=O)N1)[C@@H](C)O)C(C)C)C(=O)N[C@@H](CC(C)C)C(=O)N1CCC[C@H]1C(=O)N1CCC[C@H]1C(=O)N[C@H](C(=O)N[C@@H](CC(N)=O)C(=O)N[C@H](C(=O)NCC(=O)N[C@@H](CO)C(=O)N[C@@H](CC(N)=O)C(=O)N[C@H](C(=O)N[C@@H](Cc1ccc(O)cc1)C(N)=O)[C@@H](C)O)C(C)C)[C@@H](C)O [Peptide 112] ({C20 diacid-γGlu}-KCNTATCATQRLANFLVHSSNNFGPILPPTNVGSNTY-NH2; disulfide 2-7) | 15.8 | 15.9 | 22.1
16 | 1170 | 32.6 | CC[C@H](C)[C@H](NC(=O)[C@@H]1CCCN1C(=O)CNC(=O)[C@H](Cc1ccccc1)NC(=O)[C@H](CC(N)=O)NC(=O)[C@H](CC(N)=O)NC(=O)[C@H](CO)NC(=O)[C@H](CO)NC(=O)[C@H](Cc1c[nH]cn1)NC(=O)[C@@H](NC(=O)[C@H](CC(C)C)NC(=O)[C@H](Cc1ccccc1)NC(=O)[C@H](CC(N)=O)NC(=O)[C@H](C)NC(=O)[C@H](CC(C)C)NC(=O)[C@H](CCCNC(=N)N)NC(=O)[C@H](CCC(N)=O)NC(=O)[C@@H](NC(=O)[C@H](C)NC(=O)[C@@H]1CSSC[C@H](NC(=O)[C@H](CCCCN)NC(=O)COCCOCCNC(=O)COCCOCCNC(=O)CC[C@H](NC(=O)CCCCCCCCCCCCCCCCCCC(=O)O)C(=O)O)C(=O)N[C@@H](CC(N)=O)C(=O)N[C@@H]([C@@H](C)O)C(=O)N[C@@H](C)C(=O)N[C@@H]([C@@H](C)O)C(=O)N1)[C@@H](C)O)C(C)C)C(=O)N[C@@H](CC(C)C)C(=O)N1CCC[C@H]1C(=O)N1CCC[C@H]1C(=O)N[C@H](C(=O)N[C@@H](CC(N)=O)C(=O)N[C@H](C(=O)NCC(=O)N[C@@H](CO)C(=O)N[C@@H](CC(N)=O)C(=O)N[C@H](C(=O)N[C@@H](Cc1ccc(O)cc1)C(N)=O)[C@@H](C)O)C(C)C)[C@@H](C)O [Peptide 113] ({C20 diacid-γGlu-AEEA-AEEA}-KCNTATCATQRLANFLVHSSNNFGPILPPTNVGSNTY-NH2; disulfide 2-7) | 69.5 | 65.8 | 77.9
10.4 | 553 | 11.2 | CC[C@H](C)[C@H](NC(=O)[C@@H]1CCCN1C(=O)CNC(=O)[C@H](Cc1ccccc1)NC(=O)[C@H](CC(N)=O)NC(=O)[C@H](CC(N)=O)NC(=O)[C@H](CO)NC(=O)[C@H](CO)NC(=O)[C@H](Cc1c[nH]cn1)NC(=O)C(C)(C)NC(=O)[C@H](CC(C)C)NC(=O)[C@H](Cc1ccccc1)NC(=O)[C@H](CC(N)=O)NC(=O)[C@H](C)NC(=O)[C@H](CC(C)C)NC(=O)[C@H](CCCNC(=N)N)NC(=O)[C@H](CCC(N)=O)NC(=O)[C@@H](NC(=O)[C@H](C)NC(=O)[C@@H]1CSSC[C@H](NC(=O)[C@H](CCCCN)NC(=O)[C@@H](N)CCCCNC(=O)CC[C@H](NC(=O)CCCCCCCCCCCCCCCCC(=O)O)C(=O)O)C(=O)N[C@@H](CC(N)=O)C(=O)N[C@@H]([C@@H](C)O)C(=O)N[C@@H](C)C(=O)N[C@@H]([C@@H](C)O)C(=O)N1)[C@@H](C)O)C(=O)N[C@@H](CC(C)C)C(=O)N1CCC[C@H]1C(=O)N1CCC[C@H]1C(=O)N[C@H](C(=O)N[C@@H](CC(N)=O)C(=O)N[C@H](C(=O)NCC(=O)N[C@@H](CO)C(=O)N[C@@H](CC(N)=O)C(=O)N[C@H](C(=O)N[C@@H](Cc1ccc(O)cc1)C(N)=O)[C@@H](C)O)C(C)C)[C@@H](C)O [Peptide 129] (H-K([γGlu-C18 diacid])KCNTATCATQRLANFL[Aib]HSSNNFGPILPPTNVGSNTY-NH2; disulfide 3-8; N-terminus assumed) | 29 | 32.4 | 51
